Consider nine compounds from patent US7186530B1, “Protein associated with cell stress response” (Chiron Corporation, priority 2000, dated 2007).

Molecules are shown by their SMILES.

The subject of test [1] is p46 hyperphosphorylation. The test is described as follows: p46 (Nogo B) hyperphosphorylation after UVC irradiation in presence of inhibitors, Western blot with SC-54. It counts as cell-based, human. The procedure: FIG. 5. […] Then cells were irradiated with 20 J/m^2 of UVC and lysed 30 minutes later. Whole cell lysates were separated on SDS-PAGE. SC-54 was used for Western Blotting.
(§1) Cell culture and treatment. Normal human fibroblast IMR90 was purchased from American Type Culture Collection (Manassas, Va.). Cells were routinely cultured in Dulbecco's Modified Eagle's Medium (DMEM) containing 10% fetal bovine serum, 2 mM L-glutamine, 4.5 g/liter glucose, 100 units penicillin and 100 μg streptomycin at 37° C. under an atmosphere of 5% CO2. For UV irradiation, cells were washed twice with phosphate-buffered saline (PBS) and then irradiated with appropriate doses of UVC (254 nm). Fresh complete medium was added back and cells were lysed at appropriate times. For treatment with BPDE, cells were washed with PBS twice and fresh DMEM was added. BPDE was dissolved in anhydrous dimethyl sulfoxide (DMSO) and appropriate amount of BPDE solution was added to DMEM. Cells were lysed 30 minutes later.
(§2) Western Blotting. Lysates prepared from equal number of cells were mixed with equal volume of 2× sample buffer (50 mM Tris.HCl, pH 6.9, 9% glycerol, 2.3% SDS, 0.1% bromophenol blue and 10% mecaptoethanol) and the proteins were separated on a SDS/polyacrylamide gel. The proteins were then electroblotted onto an Immobilon-P membrane (Millipore, Bedford, Mass.). The blots were blocked for 1 hour at room temperature in Tris-buffered saline (20 mM Tris-HCl, pH 7.6, 137 mM NaCl) containing 0.1% (v/v) Tween 20 and 5% (w/v) non-fat dry milk (blocking solution), and then incubated for 1 hour at room temperature with appropriate antibodies at a concentration of 0.2–1 μg/ml. The blots were washed several times and then incubated with horseradish peroxidase-conjugated goat-anti-mouse IgG (Santa Cruz Biotechnology) that had been diluted 1:3000 with blocking solution. Enhanced chemiluminescence (Amersham, Arlington Heights, Ill.) was used according to the manufacturer's recommendations to detect the signal.
(§3) The data shown in FIG. 4 were obtained as follows. (A) IMR90 cells were treated with 0, 0.5, 1, or 4 μM of BPDE and trypsinized after 30 minutes. Digitonin-solubilized fraction (Cyto) and NP-40-solubilized fraction (Nuc) were separated on SDS-PAGE. SC-54 was used for Western Blotting. In FIG. 4, (B) IMR90 cells were incubated in the presence or absence of suramin (0.15 mM) for 1 hour before being irradiated with 0 or 20 J/m^2 of UVC. After 0, 10, 20 or 30 minutes, whole cell lysates were prepared, separated on SDS-PAGE and transferred to a PVDF membrane. SC-54 or an antibody against human ERK2 was used for Western Blotting. […] In FIG. 4, (C) IMR90 cells were treated with 0.7 M NaCl, 1 mM H2O2, 0.4 M Sorbitol or PBS (control) for 45 minutes before being lysed. Whole cell lysates were separated on SDS-PAGE. SC-54 was used for Western Blotting.
It has been shown that elevated cellular stress level can activate p38 MAPK. The role of activation of p38 MAPK in p46 hyperphosphorylation was investigated.
In general terms: In western blotting, separated proteins are transferred to a membrane and probed.

For test [2], the system named is p38. As to conditions: read-out: IC50 (p38-specific inhibitor); cited from earlier work.
Test [3] relates to p46 hyperphosphorylation. Briefly: p46 hyperphosphorylation induced by stress-inducing agents, Western blot. It counts as cell-based, human. As to conditions: for hyperphosphorylation of p46 (induction): 45 minutes. The method, then:
FIG. 4. […] (A) IMR90 cells were treated with 0, 0.5, 1, or 4 μM of BPDE and trypsinized after 30 minutes. (B) IMR90 cells were incubated in the presence or absence of suramin (0.15 mM) for 1 hour before being irradiated with 0 or 20 J/m^2 of UVC. (C) IMR90 cells were treated with 0.7 M NaCl, 1 mM H2O2, 0.4 M Sorbitol or PBS (control) for 45 minutes before being lysed.
as §1, §2, §3

Test [4] has as its system MEK. To be noted: cited from earlier work.
Test [5] has as its system ERK2. Briefly: ERK2 phosphorylation after UVC irradiation, Western blot. It counts as cell-based, human. To be noted: preincubation 0.15 mM for 1 hour, 20 J/m^2 UVC, IMR90 cells. The procedure: as §2
The data shown in FIG. 4 were obtained as follows. (A) IMR90 cells were treated with 0, 0.5, 1, or 4 μM of BPDE and trypsinized after 30 minutes. Digitonin-solubilized fraction (Cyto) and NP-40-solubilized fraction (Nuc) were separated on SDS-PAGE. SC-54 was used for Western Blotting. […]

Take `CCc1nc(-c2ccc(OC)cc2)[nH]c1-c1ccncc1` [SB202474]: the p46 hyperphosphorylation result in test [1] (concentration not given, UVC, IMR90 cells) is recorded as “no effect”.

A word on the IC50: it is the midpoint of a concentration-inhibition curve. Regarding `Oc1ccc(-c2nc(-c3ccc(F)cc3)c(-c3ccncc3)[nH]2)cc1` [SB202190], the p46 hyperphosphorylation result in test [1] (270 nM inhibitor, 30 minutes before 20 J/m^2 UVC, IMR90 cells) is given as “almost completely abolished”. Besides, the “hyperphosphorylation of Nogo” value in test [1] (indicated concentrations for 30 minutes, then 20 J/m^2 UVC, lysed 30 minutes later, IMR90 (FIG. 5)) was “abolished”. The IC50 in test [2] was […].

`OC1c2cc3ccc4cccc5ccc(c2C2OC2C1O)c3c45` (racemic) [BPDE, (±)-r-7,t-8-dihydroxy-t-9,10-epoxy-7,8,9,10-tetrahydrobenzo(a)pyrene]: the “p46 hyperphosphorylation (induction)” value in test [3] (0, 0.5, 1, or 4 μM, 30 minutes, IMR90 cells) is on record as “led to p46 hyperphosphorylation in a dose-dependent manner”.

As to `C[C@@]1(CO)[C@H](O)CC[C@@]2(C)[C@H]1CC[C@H]1C[C@@H]3C[C@@]12CC[C@]3(O)CO` [aphidicolin], the p46 phosphorylation state entry in test [3] (cells arrested by the agent) was “hyperphosphorylated”.

On to `OO` [H2O2], for which, in test [3] (1 mM, IMR90 cells), the “hyperphosphorylation of p46 (induction)” value is “rapid hyperphosphorylation”.

As for `COc1cccc(-c2cc(=O)c3ccccc3o2)c1N` [PD98059], in test [1] (20 uM), the p46 hyperphosphorylation entry is “not affected”. In addition, in test [4], the half-inhibitory concentration (IC50) is […].

`OC[C@@H](O)[C@@H](O)[C@H](O)[C@@H](O)CO` [sorbitol]: the “hyperphosphorylation of p46 (induction)” value in test [3] (0.4 M, IMR90 cells) is recorded as “rapid hyperphosphorylation”.

With `Cc1ccc(C(=O)Nc2ccc(S(=O)(=O)O)c3cc(S(=O)(=O)O)cc(S(=O)(=O)O)c23)cc1NC(=O)c1cccc(NC(=O)Nc2cccc(C(=O)Nc3cc(C(=O)Nc4ccc(S(=O)(=O)O)c5cc(S(=O)(=O)O)cc(S(=O)(=O)O)c45)ccc3C)c2)c1` [suramin], the p46 hyperphosphorylation result in test [1] (preincubation 0.15 mM for 1 hour, 20 J/m^2 UVC, IMR90 cells) is “no effect”. In test [5], the “phosphorylation of ERK2” value is given as “completely blocked”.

`[Cl-].[Na+]` [NaCl]: the “hyperphosphorylation of p46 (induction)” value in test [3] (0.7 M, IMR90 cells) is “rapid hyperphosphorylation”.
